Where two headings read alike, the source gives them in different places.
Experiments:
[1] = tested on: Namalwa, a Burkitt lymphoma cell line; experiment: In vitro potency (WST-8 cell viability assay), Namalwa; format: cell-based; details: read-out: IC50 Namalwa
Protocol: (§1) General Procedure Used: Samples of unconjugated free drug compounds or drug conjugates were added to 96-well flat bottomed tissue culture plates and titrated using serial dilutions to cover the desired molar range. Antigen positive (Ag^+) or Antigen negative (Ag^−) cells were added to the wells in specific cell densities in such a way that there were triplicate samples for each drug concentration for each corresponding cell line. The plates were then incubated at 37° C. in an atmosphere of 5% CO2 for 4-5 days depending on the cell line. COLO 205 (1,000 cells/well), Namalwa (3,000 cells/well), HEL 92.1.7 (3,000 cells/well)—4 days; RH30 (1,000 cells/well), HL60/QC (5,000 cells/well), Ramos (10,000 cells/well), KB (2,000 cells/well), BJAB (2,000 cells/well), NB4 (3,000 cells/well)—5 days, RPMI 8226 (8,000 cells/well)—6 days.
(§2) At the end of the incubation period cytotoxic potencies were then assessed using a WST-8 based cell viability assay and surviving cells were measured by developing with WST-8 (2-7 hours). The absorbance in each well was measured and the surviving fraction of cells at each concentration was plotted to reveal the cytotoxicity and/or antigen specificity (of the conjugates).
(§3) Using the general procedure described above, the cytotoxicity of the unconjugated free drug compounds was measured against seven cell lines: KB, a HeLa cell contaminant, HL60/QC, an acute myeloid leukemia cell line, Namalwa, a Burkitt lymphoma cell line, NB4, an acute promyelocytic leukemia cell line, HEL92.1.7, an erythroleukemia cell line, RPMI8226, a multiple myeloma cell line and BJAB, a B-cell leukemia cell line. […] The potency and specificity of the antibody-drug conjugates were measured against antigen-expressing cells, with and without the additions of an excess amount of blocking unconjugated antibody to show specificity of the killing effect. The MY9-6-drug conjugate was extremely potent towards three different antigen-expressing cells: HL60/ATCC, HL60/QC and NB-4, despite the very low antigen expression in NB4 cells. […] Similarly, the huFOLR1-drug conjugate was effective in killing antigen-expressing KB cells in a specific manner. Results are illustrated in FIGS. 25 and 26.

[2] = tested on: KB cells; experiment: In vitro potency (WST-8 cell viability assay), KB; format: cell-based; details: Homo sapiens, read-out: IC50 KB
Protocol: as §1, §2, §3

[3] = tested on: HL60/QC cells; experiment: In vitro potency (WST-8 cell viability assay), HL60/QC; format: cell-based, human
Protocol: as §1, §2, §3
To compare in vitro potency measurements for the subject conjugates prepared with and without imine reactive reagent, such as sodium bisulfite, huMy9-6-BMPS-1f, huMy9-6-sulfo-SPDB-1f, and huMy9-6-Drug 2 were prepared with and without sodium bisulfite using the in situ sulfonation method (wherein the respective compounds of the invention was first mixed with sodium bisulfite and a bifunctional crosslinker bearing a reactive group, then the reaction mixture, without further purification, was reacted with the huMy9-6 monoclonal antibody as the cell-binding agent). IC50s for the conjugates on HL60-QC cells are shown below.

[4] = tested on: NB4, an acute promyelocytic leukemia cell line; experiment: In vitro potency (WST-8 cell viability assay), NB4; format: cell-based; details: read-out: IC50 NB4
Protocol: as §1, §2, §3

[5] = tested on: HEL92.1.7, an erythroleukemia cell line; experiment: In vitro potency (WST-8 cell viability assay), HEL92.1.7; format: cell-based; details: Homo sapiens
Protocol: as §1, §2, §3

[6] = tested on: RPMI8226, a multiple myeloma cell line; experiment: In vitro potency (WST-8 cell viability assay), RPMI8226; format: cell-based; details: Homo sapiens
Protocol: as §1, §2, §3

[7] = tested on: BJAB, a B-cell leukemia cell line; experiment: In vitro potency (WST-8 cell viability assay), BJAB; format: cell-based; details: Homo sapiens, read-out: IC50 BJAB
Protocol: as §1, §2, §3

[8] = Phase I clinical evaluation; cited from earlier work
[9] = tested on: HL60/QC tumors; experiment: In vivo efficacy in HL60/QC tumor bearing nude mice; details: HL60-QC tumor xenografts; for T/C %: ~20 μg/kg drug dose
Protocol: In this study, the anti-tumor activity of huMY9-6-SPDB-1f was investigated in female nude mice bearing HL60/QC tumors, a human acute myeloid leukemia model. HL60/QC tumor cells, 2×10^6 cells/mouse were subcutaneously inoculated at a volume of 0.1 mL/mouse in the area over the right shoulder of female athymic nude mice, 5 weeks of age. Eight days after tumor cell inoculation mice were randomized into groups (n=6 per group) by tumor volume. Treatment was initiated the day of randomization, and groups included a control group dosed with PBS (200 μL/injection), or a single treatment at various doses (5 to 100 μg/kg) of huMY9-6-SPDB-1f (50 μg/kg 1f dose corresponded to 2.5 mg/kg antibody dose). […] The minimum effective dose was estimated to be 20 μg/kg, which is about 35-fold lower that the maximum tolerated dose.
To compare in vivo efficacy of the subject conjugates prepared with or without an imine reactive group, huMy9-6-Drug 2 were formulated with or without 50 μM sodium bisulfite, and the conjugates were used to treat mice bearing HL60-QC tumor xenografts.

[10] = Homo sapiens, HL-60, free drug, read-out: IC50 HL60/QC
[11] = HEL 92.1.7, free drug, read-out: IC50 HEL92.1.7
[12] = RPMI-8226, free drug, read-out: IC50 RPMI8226

For `COCCOCCOCCN(CC(C)(C)S(C)=S)c1cc(COc2cc3c(cc2OC)C(=O)N2c4ccccc4C[C@H]2C=N3)cc(COc2cc3c(cc2OC)C(=O)N2c4ccccc4C[C@H]2CN3)c1` (stereo partly drawn) [Compound 1d], which IC50 ([1]; free drug) is on record?
Its IC50 is 0.069 nM.

What about the IC50 ([2]; free drug) of the same molecule?
The IC50 was 0.18 nM.

And the IC50 [3, 10]?
Its IC50 is 32 pM.

For `COc1cc2c(cc1OCc1cc(COc3cc4c(cc3OC)C(=O)N3c5ccccc5C[C@H]3CN4)cc(CSCC(C)(C)SSC)c1)NC[C@@H]1Cc3ccccc3N1C2=O` [Compound 27f], which IC50 ([2]; free drug) is on record?
Its IC50 is 4.4 nM.

What about the IC50 [3, 10] of the same molecule?
The IC50 was 1700 pM.

What about the IC50 ([4]; free drug) of the same molecule?
Its IC50 is 1.1 nM.

And the IC50 [5, 11]?
The IC50 was 1.8 nM.

And the IC50 [6, 12]?
Its IC50 is over 3 nM.

What about the IC50 ([7]; free drug) of the same molecule?
The IC50 was 1 nM.

For `C=C1C[C@H]2C=Nc3cc(OCCCOc4cc5c(cc4OC)C(=O)N4CC(=C)C[C@H]4C=N5)c(OC)cc3C(=O)N2C1` [SJG-136], which maximum tolerated dose [8] is on record?
The maximum tolerated dose was 45 μg/m^2.

Which IC50 [1] does the source give for `COc1cc2c(cc1OCc1cccc(COc3cc4c(cc3OC)C(=O)N3c5ccccc5C[C@H]3CN4)c1)NC[C@@H]1Cc3ccccc3N1C2=O` [Compound 29c] here?
The IC50 was 0.013 nM.

And the IC50 [2]?
The IC50 was 0.057 nM.

What about the IC50 ([3]; Homo sapiens, HL-60, read-out: IC50 HL60/QC) of the same molecule?
Its IC50 is 30 pM.

What about the IC50 [4] of the same molecule?
The IC50 was 0.023 nM.

And the IC50 ([5]; HEL 92.1.7, read-out: IC50 HEL92.1.7)?
The IC50 was 0.027 nM.

What about the IC50 ([6]; RPMI-8226, read-out: IC50 RPMI8226) of the same molecule?
The IC50 was 0.16 nM.

What about the IC50 [7] of the same molecule?
Its IC50 is 0.015 nM.

Which IC50 ([2]; free drug) does the source give for `COc1cc2c(cc1OCc1cc(COc3cc4c(cc3OC)C(=O)N3c5ccccc5C[C@H]3CN4)cc(CSCC(C)(C)SSC)c1)N=C[C@@H]1Cc3ccccc3N1C2=O` [Compound 27e] here?
Its IC50 is 0.39 nM.

What about the IC50 [3, 10] of the same molecule?
The IC50 was 90 pM.

And the IC50 ([4]; free drug)?
Its IC50 is 0.13 nM.

And the IC50 [5, 11]?
Its IC50 is 0.2 nM.

And the IC50 [6, 12]?
The IC50 was 0.24 nM.

And the IC50 ([7]; free drug)?
Its IC50 is 0.12 nM.

For `COc1cc2c(cc1OCc1cccc(COc3cc4c(cc3OC)C(=O)N3c5ccccc5C[C@H]3CN4)c1)N=C[C@@H]1Cc3ccccc3N1C2=O` [Compound 29b], which IC50 ([1]; free drug) is on record?
The IC50 was 0.003 nM.

And the IC50 ([2]; free drug)?
The IC50 was 0.007 nM.

And the IC50 [3, 10]?
The IC50 was 6 pM.

And the IC50 ([4]; free drug)?
Its IC50 is 0.007 nM.

And the IC50 [5, 11]?
Its IC50 is 0.007 nM.

And the IC50 [6, 12]?
Its IC50 is 0.005 nM.

What about the IC50 ([7]; free drug) of the same molecule?
Its IC50 is 0.003 nM.

With `COc1cc2c(cc1OCc1cccc(COc3cc4c(cc3OC)C(=O)N3c5ccccc5C[C@H]3C=N4)c1)N=C[C@@H]1Cc3ccccc3N1C2=O` [Compound 29a] as the molecule, how does the IC50 ([1]; free drug) read?
Its IC50 is 0.002 nM.

And the IC50 ([2]; free drug)?
Its IC50 is 0.004 nM.

And the IC50 [3, 10]?
The IC50 was 1 pM.

What about the IC50 ([4]; free drug) of the same molecule?
The IC50 was 0.0023 nM.

What about the IC50 [5, 11] of the same molecule?
Its IC50 is 0.0031 nM.

And the IC50 [6, 12]?
The IC50 was 0.011 nM.

And the IC50 ([7]; free drug)?
The IC50 was 0.001 nM.

With `COc1cc2c(cc1OCc1cc(COc3cc4c(cc3OC)C(=O)N3c5ccccc5C[C@H]3C=N4)cc(CSCC(C)(C)SSC)c1)N=C[C@@H]1Cc3ccccc3N1C2=O` [Compound 27d] as the molecule, how does the IC50 ([2]; free drug) read?
Its IC50 is 0.23 nM.

And the IC50 [3, 10]?
Its IC50 is 50 pM.

And the IC50 ([4]; free drug)?
The IC50 was 0.039 nM.

And the IC50 [5, 11]?
The IC50 was 0.14 nM.

And the IC50 [6, 12]?
The IC50 was 0.07 nM.

What about the IC50 ([7]; free drug) of the same molecule?
Its IC50 is 0.04 nM.

B1: huMy9-6-Drug 2 (conjugate, chains of the INN, looked up)
VH: QVQLVESGGGVVQPGRSLRLSCAASGFTFSSFGMHWVRQAPGKGLEWVAYISSGSFTIYYADSVKGRFTISRDNSKNTLYLQMNSLRAEDTAVYYCARMRKGYAMDYWGQGTLVTVSS
VL: DVVMTQSPLSLPVTLGQPASISCRSSQIIIHSDGNTYLEWFQQRPGQSPRRLIYKVSNRFSGVPDRFSGSGSGTDFTLKISRVEAEDVGVYYCFQGSHVPHTFGQGTKVEIK
modifications: Drug 2 payload
Which IC50 ([3]; HL60-QC cells, antigen blocking with 1 μM unconjugated huMy9-6, conjugate prepared with NaHSO3 (+), read-out: IC50 (pM) huMy9-6 blocking) does the source give for B1 here?
The IC50 was over 3000 pM.

What about the IC50 ([3]; HL60-QC cells, antigen blocking with 1 μM unconjugated huMy9-6, conjugate prepared without NaHSO3 (−), read-out: IC50 (pM) huMy9-6 blocking) of the same molecule?
The IC50 was over 3000 pM.

And the IC50 ([3]; HL60-QC cells, conjugate prepared with NaHSO3 treatment (+), read-out: IC50)?
Its IC50 is 6.8 pM.

And the IC50 ([3]; HL60-QC cells, conjugate prepared without NaHSO3 treatment (−), read-out: IC50)?
The IC50 was 16 pM.

What about the “Minimum effective dose (μg/kg drug)” value ([9]; conjugate formulated with 50 μM sodium bisulfite (+)) of the same molecule?
Its value is 19 μg/kg drug.

And the “Minimum effective dose (μg/kg drug)” value ([9]; conjugate formulated without 50 μM sodium bisulfite (−))?
The value was 18 μg/kg drug.

And the T/C % ([9]; formulated with 50 μM sodium bisulfite (+))?
The T/C % was 16%.

And the T/C % ([9]; formulated without sodium bisulfite (−))?
Its T/C % is 20%.

Source: patent publication USRE49918E1, “Cytotoxic benzodiazepine derivatives” (priority 2011, dated 2024)
